Source: paper PMC8630742, “Citrullinated Epitopes Identified on Tumour MHC Class II by Peptide Elution Stimulate Both Regulatory and Th1 Responses and Require Careful Selection for Optimal Anti-Tumour Responses” (Frontiers in Immunology, 2021)

What was measured:
HLA-DP4 = HLA-DP4 competition binding assay against biotinylated Hepatitis B peptide (membrane preps, ELISA); parameters: species or system human; settings: Figure 1D; for binding of the reference Hepatitis B peptide in presence of competitor (% maximal binding): equal quantity of non-biotinylated competitor and 10 µg biotinylated HepB 181-193, B16HHDII/cDP4 membrane preps, 4 hrs 37°C, streptavidin ELISA, anti-HLA-DP; for competition with the Hepatitis B reference peptide: equal quantity of competitor and 10 µg biotinylated HepB 181-193
Protocol: Binding of peptides to HLA-DP4 was assessed by extraction of membrane fractions from B16HHDII/cDP4 cells using Mem-PER™ Plus Membrane Protein Extraction Kit (Thermo Fisher-Scientific) according to manufacturer’s instructions. Membrane preps containing HLA-DP4 were incubated with 10 µg biotinylated peptide for 4hrs at 37°C. For competition assays, the membrane preps and 10 µg biotinylated Hepatitis B peptide were pre-incubated in the presence of specified concentrations of non-biotinylated peptides. Biotinylated peptide bound to HLA-DP4 was detected by capture onto streptavidin-coated ELISA plates and detected with anti-HLA-DP antibody clone B7/21 (Leinco Technologies Inc, USA) and anti-mouse IgG3 HRP antibody (Invitrogen, UK). Binding was quantified with TMB substrate and absorbance read at 405nm wavelength.
Figure 1 Citrullinated peptide combination vaccination provides poor tumour therapy in HLA-DP4 transgenic mice. HLA-DP4 transgenic mice were challenged with B16 cells constitutively expressing DP4 (A) or expressing DP4 under an IFNγ inducible promoter (B) and four days later mice were immunised with combination of 10ug each of seven eluted peptides and tumour growth and survival monitored. N=10/group. (C), HLA-DP4 transgenic mice were immunised with seven peptide combination vaccine at days 1, 8 and 15 and immune responses monitored at day 21 by IFNγ ELISpot assay. Results are representative of at least two independent experiments in which n=3. (D), Competition of equal quantity of non-biotinylated competitor peptides in the presence of 10µg biotinylated HepB 181-193 peptide. Results are representative of at least two independent experiments.

splenocytes (IFNγ) = assay: Ex vivo IFNγ ELISpot assay on splenocytes of immunised mice; assay type: in vivo, mouse; settings: for IFNγ response to immunising peptide / IFNγ response at lower (10µg) immunising peptide dose: HLA-DP4 transgenic mice; for IFNγ response to immunising peptide: 25µg single peptide with CpG and MPLA days 1, 8, 15, splenocytes day 21, 10 µg/mL peptide, Figure 2A; for IFNγ response at lower (10µg) immunising peptide dose: 10µg single peptide, Figure 2F; for IFNγ response in presence of CD4 blocking antibody: anti-CD4 OKT4 20µg/ml, C; for avidity of the immune response: titrating quantities of peptide in IFNγ ELISpot, Figure 2E
Protocol: (§1) For all studies, the mice were randomised into different groups but not blinded to the investigators. Peptides were dissolved in PBS and then emulsified with CpG (ODN 1826, Invivogen) and MPLA (Invivogen) and delivered at 10 or 25µg dose unless stated otherwise. Adjuvants were used at 5µg/dose. Peptides in adjuvant were injected subcutaneously at the base of the tail. Mice were immunised on day 1, 8 and 15 and spleens were removed for analysis at day 21.
ELISpot assays were performed using murine IFNγ and IL-10 capture and detection reagents according to the manufacturer’s instructions (Mabtech). In brief, the specific cytokine antibodies were coated onto wells of 96-well Immobilin-P plates. […] (RPMI medium 1640 (GIBCO/BRL) supplemented with 10% FCS (Sigma), 2mM L-glutamine (Sigma) and sodium bicarbonate buffered with additional 20mM HEPES (Sigma) and 50 µM 2-mercaptoethanol (2ME, Thermofisher). 5x10^5/well splenocytes were added in quadruplicate wells, plates were incubated for 40 hours at 37 °C/5% CO2. Cells with culture media only were added as negative control and cells cultured with 5 µg/ml Lipopolysaccharide (LPS, Sigma) were used as a positive control. Where relevant anti-CD4 (human clone OKT4, BioXcell) or CD8 (mouse clone 2.43, BioXcell) blocking antibodies were added to splenocytes at 20µg/ml for 15 minutes prior to stimulation with peptide. After incubation, captured cytokine was detected by biotinylated cytokine specific antibody and developed using streptavidin alkaline phosphatase and chromogenic substrate. Spots were analysed and counted using an automated plate reader (Cellular Technologies Ltd). Results were represented as spots/million splenocytes.

splenocytes (IL-10) = assay: Ex vivo IL-10 ELISpot assay on splenocytes of immunised mice; assay type: in vivo, mouse; settings: for IL-10 response to immunising peptide: HLA-DP4 transgenic mice, 25ug single peptide with CpG/MPLA days 1, 8, 15, day 21, Figure 3A
Protocol: as §1
ELISpot assays were performed using murine IFNγ and IL-10 capture and detection reagents according to the manufacturer’s instructions (Mabtech). In brief, the specific cytokine antibodies were coated onto wells of 96-well Immobilin-P plates. Synthetic peptides (Genescript) were used at 10 µg/mL and diluted in culture media (RPMI medium 1640 (GIBCO/BRL) supplemented with 10% FCS (Sigma), 2mM L-glutamine (Sigma) and sodium bicarbonate buffered with additional 20mM HEPES (Sigma) and 50 µM 2-mercaptoethanol (2ME, Thermofisher). 5x10^5/well splenocytes were added in quadruplicate wells, plates were incubated for 40 hours at 37 °C/5% CO2. Cells with culture media only were added as negative control and cells cultured with 5 µg/ml Lipopolysaccharide (LPS, Sigma) were used as a positive control. Where relevant anti-CD4 (human clone OKT4, BioXcell) or CD8 (mouse clone 2.43, BioXcell) blocking antibodies were added to splenocytes at 20µg/ml for 15 minutes prior to stimulation with peptide. After incubation, captured cytokine was detected by biotinylated cytokine specific antibody and developed using streptavidin alkaline phosphatase and chromogenic substrate. Spots were analysed and counted using an automated plate reader (Cellular Technologies Ltd). Results were represented as spots/million splenocytes.

[1] = tested on: B16/HHDII/cDP4 (B16cDP4) cells; assay: Tumour therapy, B16cDP4 melanoma in HLA-DP4 transgenic mice; assay type: in vivo, mouse; settings: for tumour free survival: 25ug individual peptide with CpG/MPLA, n=10/group, Figure 4A; for overall survival at day 50 / tumour growth: 25ug individual peptide, compared to unimmunised control, Figure 4
Protocol: as §1
For the tumour therapy studies, HHDII/DP4 transgenic mice were challenged by subcutaneous injection with 5 × 105 B16/HHDII/cDP4 (B16cDP4) cells or 1 × 105 B16/HHDII/iDP4 (B16iDP4) cells subcutaneously on the flank at day 1 and then immunised on days 4, 11 and 18. Tumour growth was monitored at 3–4 days intervals and mice were humanely euthanised once tumour approached 15mm diameter.

[2] = mice immunised with 25ug peptide, Figure 2B
[3] = mice immunised with 25ug peptide

Substance | binding of the reference Hepatitis B peptide in presence of competitor (% maximal binding) (HLA-DP4) | IL-10 response to immunising peptide (splenocytes (IL-10)) | IFNγ response to immunising peptide (splenocytes (IFNγ)) | tumour free survival [1] | overall survival at day 50 / tumour growth [1] | also measured
NGQT-cit-EHALLAYTLGVKQLIVGVNK [citELO, Synthetic citrullinated peptide Elongation factor 1-alpha 1 130-154] | 40-50% |  |  |  |  | 
collagen [reference compound] |  |  |  |  |  | competition with the Hepatitis B reference peptide (HLA-DP4): no competition
EPKSSCYNTHEKRIYQSNMLNRYLI [GRI, synthetic native peptide Glutamate receptor ionotropic 316-340] |  |  |  |  |  | IFNγ response to unmodified peptide in mice immunised with the citrullinated peptide (splenocytes (IFNγ); mice immunised with 25ug citGRI, Figure 2B): cross reactivity
ML-cit-CASGAEL-cit-QPPRDVPPDAR [cit5T4, Synthetic citrullinated peptide Trophoblast glycoprotein-like protein 40-61] | 40-50% |  |  |  |  | 
fibrinogen [reference compound] |  |  |  |  |  | competition with the Hepatitis B reference peptide (HLA-DP4): no competition
KRDVTLEAS-cit-ESSKP-cit-AVLKP-cit- [citSeThrePho, Synthetic citrullinated peptide Serine/threonine-protein phosphatase 2A 55 kDa regulatory subunit B gamma isoform 370-391] | 30-35% |  |  |  |  | 
LEIY-cit-YTSFVPFTIPHSTTR [citCp450, Synthetic citrullinated peptide Cytochrome P450 1A2 373-392] | 40-50% | strong IL-10 response | absence of any detectable IFNγ response | 20% | tumour growth similar to control | IL-10 response in HHDII/DR1 mice (splenocytes (IL-10); HHDII/DR1 compared to HHDII/DP4 mice, Figure 3C): fail to be stimulated; IL-10 response in presence of CD4 blocking antibody (splenocytes (IL-10); mice immunised with 25ug citCp450, did not reach significance, Figure 3B): reduction in response; IL-10 response when delivered as part of the combination vaccine (splenocytes (IL-10); seven peptide combination vaccine, Figure 3D): stimulated IL-10 responses
MDEIDAIGG-cit-RFSEGTSADREIQ [cit26S-10B, Synthetic citrullinated peptide 26S protease regulatory subunit 10B 246-268] | 30-35% |  |  |  |  | 
VFDWIRKERNQYGEVRV-cit-FNTYFFR [citMMP21, Synthetic citrullinated peptide Matrix metalloproteinase-21 337-360] | 40-50% | some IL-10-producing cells | strong IFNγ responses | 90% | strong overall survival | IFNγ response in HHDII/DR1 transgenic mice (splenocytes (IFNγ); HHDII/DR1 mice, Figure 2D): No responses; IFNγ response at lower (10µg) immunising peptide dose (splenocytes (IFNγ)): only the response to citMMP21 was observed; IFNγ response in presence of CD4 blocking antibody (splenocytes (IFNγ); [2]): reduced; IFNγ response in presence of CD8 blocking antibody (splenocytes (IFNγ); anti-CD8 2.43 20µg/ml, mice immunised with 25ug peptide, Figure 2C): No significant blocking; avidity of the immune response (splenocytes (IFNγ); [3]): 10^-8 M
EPKSSCYNTHEK-cit-IYQSNMLN-cit-YLI [citGRI, Synthetic citrullinated peptide Glutamate receptor ionotropic 316-340] | 40-50% | some IL-10-producing cells | strong IFNγ responses | 70% | significant overall survival | IFNγ response at lower (10µg) immunising peptide dose (splenocytes (IFNγ)): failed to stimulate an immune response; IFNγ response in presence of CD4 blocking antibody (splenocytes (IFNγ); [2]): efficiently blocked; avidity of the immune response (splenocytes (IFNγ); [3]): 10^-7 M
